Assay results taken from PubChem BioAssay (NCI).
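1) Cells in 96-well plates. 2) Compound, 48 h, 5 concentrations. 3) Linear interpolation between surrounding doses. 4) Unreached endpoint = highest concentration. TGI denotes the concentration required for complete inhibition of growth.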 Where a SMILES comes first, the peptide text is derived from it. [ ]: non-standard residue; d: D form. Ava = NCCCCC(=O)O; Mpa = O=C(O)CCS

Key:
Assay in all cases: growth of human tumour cells (NCI), 48 h
SR leukemia = tested on: SR leukemia
SK-MEL-28 melanoma = tested on: SK-MEL-28 melanoma
A498 renal = tested on: A498 renal
HCT-116 colon = tested on: HCT-116 colon
HOP-92 NSCLC = tested on: HOP-92 NSCLC
OVCAR-5 ovarian = tested on: OVCAR-5 ovarian
MCF7 breast = tested on: MCF7 breast
786-0 renal = tested on: 786-0 renal
UACC-62 melanoma = tested on: UACC-62 melanoma
MALME-3M melanoma = tested on: MALME-3M melanoma

Row | SMILES | TGI (SR leukemia) [µM] | TGI (SK-MEL-28 melanoma) [µM] | TGI (A498 renal) [µM] | TGI (HCT-116 colon) [µM] | TGI (HOP-92 NSCLC) [µM] | TGI (OVCAR-5 ovarian) [µM] | TGI (MCF7 breast) [µM] | TGI (786-0 renal) [µM] | TGI (UACC-62 melanoma) [µM] | TGI (MALME-3M melanoma) [µM]
1 | O=C(CC(C(=O)c1ccsc1)c1cccs1)c1ccccc1 (centres undefined) | > 100 | > 100 | > 100 | > 100 | > 100 | > 100 | > 100 | > 100 | > 100 | –
2 | O=C(CCCc1cccc2[nH]c3c(c12)CN(Cc1ccccc1)CC3)c1ccc(F)cc1 | > 100 | > 100 | > 100 | > 100 | > 100 | > 100 | > 100 | > 100 | > 100 | > 100
3 | CCC1(O)C(=O)OCc2c1cc1n(c2=O)Cc2cc3cc4c(cc3nc2-1)OCO4 (centres undefined) | 3.79 | 18.9 | 0.0816 | 0.108 | 0.6 | 0.693 | > 12.8 | 0.102 | 0.0509 | 0.807
4 | CCOC(=O)/C(C(N)=O)=C(\O)C(=O)/C=C(\O)c1ccc(Cl)cc1 | 44.5 | 63.2 | > 100 | 28.7 | 53.9 | 54.3 | 62.4 | 32.2 | 43.1 | 45.1
5 | CC(=O)OCC1OC(n2c(C)c(C)cc(C#N)c2=S)C(OC(C)=O)C(OC(C)=O)C1OC(C)=O (centres undefined) | > 100 | > 100 | > 100 | > 100 | > 100 | > 100 | > 100 | > 100 | > 100 | > 100
6 | O=C(N/N=C\c1ccc(Cl)cc1)Nc1ccc2ccccc2c1 | > 100 | > 100 | > 100 | > 100 | 77.7 | > 100 | > 100 | 38.4 | > 100 | > 100
7 | COc1cc(/C=C2\C(=O)N(c3cccc(NC(C)=O)c3)C(c3ccccc3)S2(=O)=O)cc(OC)c1OC (centres undefined) | > 100 | > 100 | > 100 | > 100 | > 100 | > 100 | > 100 | > 100 | > 100 | > 100
8 | CC(NC(=O)CCS)C(=O)NC(C)C(=O)NC(Cc1c[nH]c2ccccc12)C(=O)NC(Cc1c[nH]cn1)C(=O)NC(CO)C(=O)NC(Cc1c[nH]c2ccccc12)C(=O)NCCCCC(=O)NC(C)C(=O)NC(CCC(N)=O)C(=O)NC(CCCCN)C(=O)NC(C)C(=O)NC(CCCNC(=N)N)C(=O)NC(CCCCN)C(N)=O (centres undefined) ([Mpa]AAWHSW[Ava]AQKARK-NH2; configuration not given here) | > 100 | > 100 | > 100 | > 100 | > 100 | > 100 | > 100 | > 100 | 52 | 36.9
9 | CC(=O)C1=C(C)N(c2ccccc2)C2(O)C3=C(C(=O)c4ccccc4C3=O)C(O)=CC12Cl (centres undefined) | 12.3 | 23.6 | 30.5 | > 100 | 30 | > 100 | 39.9 | > 100 | 73.9 | 4.91
10 | COc1cc2c(cc1OC)C(CCN)=NCC2 | 23.8 | 33.2 | 62.8 | 33.7 | 15.1 | > 57.8 | 40.2 | 18.4 | 34.4 | 33.1
11 | COc1ccc(SCc2cc(OC)ccc2OC)cc1 | > 100 | > 100 | > 87.1 | > 100 | 94.3 | > 100 | > 100 | > 100 | > 100 | > 100
12 | CC1OC(NCCNCCNC2OC(C)C(O)C(O)C2O)C(O)C(O)C1O (centres undefined) | > 100 | > 100 | > 100 | > 100 | > 100 | > 100 | > 100 | > 100 | > 100 | > 100
13 | Cc1nc2c(Cl)cc(Cl)cc2c2c1CCO2 | > 100 | > 100 | > 100 | > 100 | > 100 | > 100 | > 100 | > 100 | > 100 | > 100
14 | CCOC(=O)NC(Nc1ccc(F)cc1F)(C(F)(F)F)C(F)(F)F | > 100 | > 100 | > 100 | > 100 | > 100 | > 100 | > 100 | > 100 | > 100 | > 100
15 | CC(O)C(CO)NC(=O)C1CSSCC(NC(=O)C(N)Cc2ccccc2)C(=O)NC(Cc2ccccc2)C(=O)NC(Cc2c[nH]c3ccccc23)C(=O)NC(CCCCN)C(=O)NC(C(C)O)C(=O)N1 (centres undefined) | > 100 | > 100 | > 100 | > 100 | > 100 | > 100 | > 100 | > 100 | > 100 | > 100
16 | CCC(C)C(Nc1c2ccccc2nc2c(C(=O)NCCN(C)C)cccc12)C(=O)O (centres undefined) | > 100 | 67.1 | 42.4 | > 100 | 61.1 | > 100 | > 100 | > 100 | 47.4 | 35.1
17 | COc1cc(/C=C/C(=O)CC(=O)/C=C/c2cc(C)c(O)c(OC)c2)cc(C)c1O | > 100 | > 100 | > 100 | > 100 | > 100 | > 100 | > 100 | > 100 | > 100 | > 100
18 | COC(=O)[C@@]12CSC[C@]1(C(=O)OC)N[C@@H](c1ccccc1O)C2 | > 100 | > 100 | > 100 | > 100 | > 100 | > 100 | > 100 | > 100 | > 100 | > 100
19 | COc1ccc(-c2c(C#N)c(N)[nH]c(=S)c2C#N)cc1 | > 100 | > 100 | > 100 | 93.8 | > 100 | > 100 | > 100 | 47.3 | > 100 | 86
